In one experiment the test system is SH-SY5Y. Nature of the experiment: Neuroprotective activity against amyloid beta (25 to 35)-induced cell damage in human SH-SY5Y cells assessed as survival rate at 10 uM measured after 72 hrs by MTT assay. As to conditions: read-out: Survival. The class given is functional. On the technique in general: Formazan colour is commonly taken as a measure of viable cells.

Experiment [1] can be described thus: Selectivity ratio of IC50 for CDK5 (unknown origin) to IC50 for CDK2 (unknown origin).
In a further experiment the target is CDK2/Cyclin A1 (Homo sapiens, UniProt P24941). Nature of the experiment: Inhibition of CDK2/cyclin A (unknown origin). The class given is protein-complex assay.
Experiment [2] addresses Glycogen synthase kinase-3 beta (Homo sapiens, UniProt P49841). Nature of the experiment: Inhibition of GSK3beta (unknown origin).
Experiment [3] has as its target Cyclin-dependent kinase 5/CDK5 activator 1 (Homo sapiens, UniProt Q00535). Nature of the experiment: Inhibition of CDK5/p25 (unknown origin). It is filed as protein-complex assay.
Experiment [4] addresses Dual specificity tyrosine-phosphorylation-regulated kinase 1A (Homo sapiens) (UniProt Q13627). Nature of the experiment: Inhibition of DYRK1A (unknown origin) at 10 uM relative to control.
For experiment [5], the target named is Cyclin-dependent kinase 5 (Homo sapiens) (UniProt Q00535). Nature of the experiment: Inhibition of CDK5 (unknown origin) at 10 uM relative to control.
Cyclin-dependent kinase 5 (Homo sapiens), sequence (Q00535 whole entry, looked up): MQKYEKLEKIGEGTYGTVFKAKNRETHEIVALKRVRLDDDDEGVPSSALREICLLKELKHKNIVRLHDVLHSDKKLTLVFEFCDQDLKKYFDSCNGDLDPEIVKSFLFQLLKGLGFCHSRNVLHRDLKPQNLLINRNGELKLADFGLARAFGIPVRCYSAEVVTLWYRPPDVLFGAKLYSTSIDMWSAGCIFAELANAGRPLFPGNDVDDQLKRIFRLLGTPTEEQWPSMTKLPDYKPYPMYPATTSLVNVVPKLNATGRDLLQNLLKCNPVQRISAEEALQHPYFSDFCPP
For experiment [6] the target is unchanged. Nature of the experiment: Binding affinity to CDK5 (unknown origin) assessed as change in gibbs free energy.
Experiment [7] is described as follows: Selectivity index, ratio of IC50 for CDK2/cyclin A (unknown origin) to IC50 for CDK5/p25 (unknown origin).

The structures appear in SMILES notation. Where only a bound is given, the exact number is not on record here.

Cyclin-dependent kinase 5/CDK5 activator 1, sequence (Q00535 whole entry): as the sequence (Q00535 whole entry, looked up) above
Cyclin-dependent kinase 5/CDK5 activator 1, sequence (Q15078 whole entry, further chain): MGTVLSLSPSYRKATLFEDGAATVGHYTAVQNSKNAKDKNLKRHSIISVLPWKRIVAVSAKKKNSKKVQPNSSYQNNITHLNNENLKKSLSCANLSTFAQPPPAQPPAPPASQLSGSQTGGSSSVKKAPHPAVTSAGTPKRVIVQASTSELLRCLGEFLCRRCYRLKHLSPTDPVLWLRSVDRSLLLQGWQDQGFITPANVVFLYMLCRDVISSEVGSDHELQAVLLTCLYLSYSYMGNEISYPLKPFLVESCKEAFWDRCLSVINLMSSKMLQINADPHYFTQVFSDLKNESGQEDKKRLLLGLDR
Glycogen synthase kinase-3 beta, sequence (P49841 whole entry): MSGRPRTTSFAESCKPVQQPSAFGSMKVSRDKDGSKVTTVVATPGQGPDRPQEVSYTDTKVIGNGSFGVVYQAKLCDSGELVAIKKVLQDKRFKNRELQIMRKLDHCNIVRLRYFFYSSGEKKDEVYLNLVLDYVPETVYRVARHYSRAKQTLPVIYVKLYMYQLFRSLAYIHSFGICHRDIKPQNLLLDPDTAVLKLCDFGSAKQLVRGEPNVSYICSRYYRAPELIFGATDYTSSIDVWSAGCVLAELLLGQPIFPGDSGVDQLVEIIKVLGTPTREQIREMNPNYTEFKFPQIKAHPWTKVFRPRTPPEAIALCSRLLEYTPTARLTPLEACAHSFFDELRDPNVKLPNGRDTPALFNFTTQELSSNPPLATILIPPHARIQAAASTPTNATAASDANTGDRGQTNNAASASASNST

With `NC(=O)CN1C(=O)C(O)(CC(=O)c2ccc3ccccc3c2)c2ccccc21` (centres undefined), in the experiment with SH-SY5Y, the viability at 10 µM is 82.6%.

As to `O=C(NOc1ccccc1)Nc1csc(Cc2c(Cl)cccc2Cl)n1`, in experiment [1], the Ratio IC50 is 100. The molecule further displayed an IC50 on CDK2/Cyclin A1 of more than 100000 nM.

Molecule `O=C(Nc1cc(Br)ccn1)Nc1cccc2c1C1CCCCN1C2=O` (centres undefined) gave an IC50 in experiment [2] of 22 nM.

On to `CN1CCC(N(CC(=O)O)c2ccc3cnc(Nc4ccc(-n5ccc(CO)n5)cc4F)cc3n2)CC1`, for which the Ratio IC50 in experiment [1] was found to be 100. This molecule returned an IC50 against CDK2/Cyclin A1 of 444 nM.

In [3], `C[C@]12CC[C@H]3[C@@H](CCC4=CC(=O)CC[C@@]43C)[C@@H]1CC[C@@H]2C(=O)COS(=O)(=O)c1ccc(Br)cc1` came in with an IC50 of 6000 nM.

As for `COc1ccc(OCC(=O)Nc2cccc(-c3nc4ccccc4c(=O)o3)c2)cc1`, the viability at 10 µM with SH-SY5Y is 82.9%.

Turning to `CN1C(=O)COc2ccc(-c3nn(Cc4ccccc4)c(=O)c4ccccc34)cc21`, in the experiment on SH-SY5Y, the viability at 10 µM was 80.1%.

As for `NS(=O)(=O)c1cccc(Nc2ncc3c(n2)CCCC3)c1`, the inhibition in experiment [4] stood at 95%; in [5] it was 98%.

Take `O=C(C1=C(O)C(=O)N(CCc2c[nH]c3ccccc23)C1c1cccnc1)c1ccc(Cl)cc1` (centres undefined): the viability at 10 µM in the experiment with SH-SY5Y is 82.8%.

Consider `COc1ccc(CC(=O)Cc2ccn([C@H]3C[C@@H](C(N)=O)C3)c2)cc1`, for which the deltaG in experiment [6] is -23 kcal/mol. For the same molecule, the values for the IC50 (in experiment [3]; at CDK2/Cyclin A1) were 9 nM and 63 nM, respectively.

Turning to `O=C(Nc1csc(Cc2c(Cl)cccc2Cl)n1)NN1CCOCC1`, the Ratio IC50 in experiment [7] turned out to be 10.

Consider `O=c1oc2cc(O)cc(O)c2c2ccccc12`, for which the inhibition amounted to 92.2% in experiment [4] and 62% in [5].

As for `C[C@@]12CCC[C@H]1[C@@H]1CC[C@H]3C[C@H](N)CC[C@]3(C)[C@H]1CC2`, in experiment [3], 6000 nM corresponded to half-maximal inhibition (IC50).

Broadly, the IC50 is the concentration that inhibits the measured activity by half. Higher therefore signals lower potency. What is called inhibition is the relative decrease from the control value, in per cent. A low value points to little suppression.
